Measurements: patent US8178135B2, “Aqueous solution of conophylline and/or conophyllidine” (Keio University, priority 2006, dated 2012)
Where two headings read alike, the source gives them in different places.

Tests used:
[1] = Concentration dissolved after neutralization with pectin or sodium polyacrylate (partially purified by reversed phase column); type: physicochemical; settings: for concentration in solution: Control: not neutralized
Procedure: Crude extract I (250 mg) obtained in Example 1 was dissolved in 5 ml of ethanol. Water was added to this solution in a total volume of 50 ml, which was passed through a glass column packed with about 5 ml of ODS resin (DM1020T, manufactured by Fuji Silysia Chemical Ltd.). After unadsorbed matter was removed by washing the column with 10 ml of distilled water, the adsorbed component was eluted with 10 ml of ethanol. Then, after the solvent was removed by centrifugal concentration, the concentrate was dissolved in 5 ml of 0.1 N hydrochloric acid and the solution was dispensed in 0.5 ml aliquots into test tubes. Then, 10 μl, 100 μl, or 1000 μl of a 0.2% aqueous solution of pectin or 0.2% aqueous solution of sodium polyacrylate was added to the aliquots. The solutions were treated in the same way as in Example 11 and the concentrations of conophylline and conophyllidine in the supernatants were measured.

[2] = Blood concentrations after oral administration of Crude extract I to rats; type: in vivo, rat
Procedure: One drop of Tween 80 was added to the crude extract (0.05 g) obtained in Example 1, which was suspended in 5-ml of water for injection. This suspension was administered to 5-week old rats (Crj:CD(SD) IGS, SPF, male) using a sonde by forced oral administration at a dose of 5 ml/kg body weight (n=2). Blood was taken from the orbital venous plexus of each rat at 0.5, 1, 2, 4, 8, 24 hours post administration and serum was recovered by centrifugation. Then, the concentrations of conophylline and conophyllidine in the blood were measured (Table 7) by the same method as in Example 8. As the control, water for injection containing one drop of Tween80 was administered orally at a dose of 5 ml/kg body weight (n=2) and the blood concentrations were measured in the same manner.

[3] = Blood concentrations after oral administration of acetic acid extract or dried pulverized leaves to healthy rats; type: in vivo, rat
Procedure: Dried leaves of Tabernaemontana divaricata were pulverized with a home mill, 1 g of the pulverized product was homogenized in 20 ml of 0.3 M acetic acid solution, and the active ingredient was extracted by stirring at 50° C. for 30 min. The supernatant was recovered by centrifugation and concentrated to dryness to obtain 0.3 g of powder (acetic acid extract). This powder contained conophylline and conophyllidine at 1.0 mg/g and 0.8 mg/g, respectively.
Further, 1 g of pulverized leaves was homogenized in 20 ml of distilled water and then concentrated to dryness to obtain 1 g of product (dried pulverized leaves). The amounts of the active ingredients of conophylline and conophyllidine were 0.40 mg/g and 0.35 mg/g, respectively.
Next, 0.2 g of the acetic acid extract and 0.5 g of the dried pulverized leaves were separately suspended in 5 ml of water for injection. These suspensions were administered to 5-week old healthy rats (Crj:CD (SD) IGS, SPF, male) using a sonde by forced oral administration at a dose of 5 ml/kg body weight (n=2 per suspension). Blood was taken from the orbital venous plexus of each rat before oral administration, 1.5, 3, 6, 12, and 24 hours post administration and serum was recovered by centrifugation. The concentrations of conophylline and conophyllidine in the blood were measured by precipitating protein by addition of 2 volumes of acetonitrile to the serum followed by HPLC analysis of the supernatant (Table 6).

[4] = Dissolution of dried ethanol extract in citric acid / citrate buffer at pH 2.6 to 6.0 (HPLC); type: physicochemical
Procedure: Conophylline and conophyllidine were analyzed by reversed phase HPLC in a high pressure gradient mode using a YMC-Pack Pro C18 RS column (4.6 mm×250 mm; manufactured by YMC Co., Ltd.). The mobile phase consisted of 1% by volume acetic acid as solvent A and acetonitrile as solvent B. The gradient program was set to start with 10% B at a flow rate of 1 ml/min, and the portion of B was increased linearly to 55% over 25 min. The column temperature was 40° C. and UV absorption was monitored at the wavelength of 335 nm. The reference solutions of conophylline and conophyllidine were prepared immediately before measurement and their concentrations were calculated from the absorbance at 335 nm of the solutions prepared.
After some of the dried leaves obtained in Example 1 were pulverized in a mill, 10 g of the pulverized product was extracted with 100 ml of 60% ethanol. Then, the extract was centrifuged and supernatant containing conophylline and conophyllidine was recovered. […] The supernatant was dispensed in 3 ml aliquots into 5 centrifuge tubes and then concentrated to dryness by centrifugation. A buffer (citric acid aqueous solution or sodium citrate buffer) at pH 2.6 to pH 6.0 prepared by appropriately mixing 0.1 M citric acid solution and 0.1 M sodium citrate solution was added at 0.1 ml per tube. After 10 min vigorous stirring, the supernatant was centrifugated again and diluted 10-fold with 50% ethanol. After the dilution, insoluble matter was removed by filtration with a 0.2-μm membrane filter and the contents of conophylline and conophyllidine in the filtrated supernatant were measured by HPLC (Table 2).

[5] = pH 6.0, Sodium polyacrylate 10 μg/ml
[6] = pH 6.0, Sodium polyacrylate 100 μg/ml
[7] = male, Crj:CD(SD) IGS, rat, in vivo, po, blood concentration

**Q.** With `CC[C@@]12C=CCN3CC[C@]4(C(=C(C(=O)OC)C1)Nc1cc5c(cc14)[C@H]1[C@@H](O5)[C@H](O)[C@]4(CC)CC(C(=O)OC)=C5Nc6c(cc(O)c(OC)c6OC)[C@@]56CCN1[C@H]46)[C@H]32` (stereo in doubt) [Conophyllidine, conophyllidine] as the compound, how does the concentration in solution [1] read?
**A.** The concentration in solution was 16080 ng/mL.

**Q.** And the “concentration in supernatant after neutralization” value (shortened to “concentration in supernatant”) ([1]; pH 6.0, Pectin 10 μg/ml)?
**A.** The value was 130 ng/mL.

**Q.** And the “concentration in supernatant” value ([1]; pH 6.0, Pectin 100 μg/ml)?
**A.** Its value is 570 ng/mL.

**Q.** And the “concentration in supernatant” value ([1]; pH 6.0, Pectin 1000 μg/ml)?
**A.** The value was 2740 ng/mL.

**Q.** What about the “concentration in supernatant” value [1, 5] of the same compound?
**A.** Its value is 170 ng/mL.

**Q.** What about the “concentration in supernatant” value [1, 6] of the same compound?
**A.** Its value is 6990 ng/mL.

**Q.** What about the “concentration in supernatant” value ([1]; pH 6.0, additive None) of the same compound?
**A.** Its value is 160 ng/mL.

**Q.** And the blood concentration ([2]; Crude extract I oral, rats (animals 3, 4), 0.5 h)?
**A.** The blood concentration was 65 ng/mL.

**Q.** What about the blood concentration ([2]; Crude extract I oral, rats (animals 3, 4), 1 h) of the same compound?
**A.** Its blood concentration is 62 ng/mL.

**Q.** What about the blood concentration ([2]; Crude extract I oral, rats (animals 3, 4), 2 h) of the same compound?
**A.** The blood concentration was 32 ng/mL.

**Q.** And the blood concentration ([2]; Crude extract I oral, rats (animals 3, 4), 4 h)?
**A.** The blood concentration was 25 ng/mL.

**Q.** And the blood concentration ([2]; Crude extract I oral, rats (animals 3, 4), 8 h)?
**A.** Its blood concentration is 13 ng/mL.

**Q.** And the blood concentration ([2]; Crude extract I oral, rats (animals 3, 4), 24 h)?
**A.** Its blood concentration is 9 ng/mL.

**Q.** What about the concentration at 0.5 h ([2]; male, Crj:CD(SD) IGS, rat, in vivo, po, 0.05 g/kg, Crude extract I oral, rats (animals 3, 4), 0.5 h, read-out: blood concentration) of the same compound?
**A.** The concentration at 0.5 h was 54 ng/mL.

**Q.** And the concentration at 1 h ([2]; male, Crj:CD(SD) IGS, rat, in vivo, po, 0.05 g/kg, Crude extract I oral, rats (animals 3, 4), 1 h, read-out: blood concentration)?
**A.** Its concentration at 1 h is 61 ng/mL.

**Q.** And the concentration at 2 h ([2]; male, Crj:CD(SD) IGS, rat, in vivo, po, 0.05 g/kg, Crude extract I oral, rats (animals 3, 4), 2 h)?
**A.** Its concentration at 2 h is 40 ng/mL.

**Q.** What about the concentration at 4 h ([2]; male, Crj:CD(SD) IGS, rat, in vivo, po, 0.05 g/kg, Crude extract I oral, rats (animals 3, 4), 4 h) of the same compound?
**A.** Its concentration at 4 h is 36 ng/mL.

**Q.** And the concentration at 8 h ([2]; male, Crj:CD(SD) IGS, rat, in vivo, po, 0.05 g/kg, Crude extract I oral, rats (animals 3, 4), 8 h)?
**A.** The concentration at 8 h was 24 ng/mL.

**Q.** And the concentration at 24 h ([2]; male, Crj:CD(SD) IGS, rat, in vivo, po, 0.05 g/kg, Crude extract I oral, rats (animals 3, 4), 24 h, read-out: blood concentration)?
**A.** The concentration at 24 h was 13 ng/mL.

**Q.** What about the blood concentration ([3]; Dried pulverized leaves oral, healthy rats (animals 3, 4), 6 h) of the same compound?
**A.** The blood concentration was 54 ng/mL.

**Q.** What about the blood concentration ([3]; Dried pulverized leaves oral, healthy rats (animals 3, 4), 12 h) of the same compound?
**A.** The blood concentration was 13 ng/mL.

**Q.** What about the blood concentration ([3]; Dried pulverized leaves oral, healthy rats (animals 3, 4), 24 h) of the same compound?
**A.** The blood concentration was 2 ng/mL.

**Q.** What about the “time at which blood concentration reached its maximum” value ([3]; acetic acid extract oral, rats) of the same compound?
**A.** Its value is 1.5 h.

**Q.** And the concentration at 6 h ([3]; male, Crj:CD (SD) IGS, rat, in vivo, po, 0.5 g/kg, Dried pulverized leaves oral, healthy rats (animals 3, 4), 6 h)?
**A.** Its concentration at 6 h is 28 ng/mL.

**Q.** And the concentration at 12 h ([3]; male, Crj:CD (SD) IGS, rat, in vivo, po, 0.5 g/kg, Dried pulverized leaves oral, healthy rats (animals 3, 4), 12 h)?
**A.** The concentration at 12 h was 8 ng/mL.

**Q.** And the concentration at 24 h ([3]; male, Crj:CD (SD) IGS, rat, in vivo, po, 0.5 g/kg, Dried pulverized leaves oral, healthy rats (animals 3, 4), 24 h)?
**A.** Its concentration at 24 h is 1 ng/mL.

**Q.** And the “content dissolved in supernatant” value ([4]; Citrate buffer solution, pH 3)?
**A.** Its value is 0.612 mg/mL.

**Q.** And the “content dissolved in supernatant” value ([4]; Citrate buffer solution, pH 4)?
**A.** The value was 0.055 mg/mL.

**Q.** What about the “content dissolved in supernatant” value ([4]; Citrate buffer solution, pH 5) of the same compound?
**A.** Its value is 0.0017 mg/mL.

**Q.** And the “content dissolved in supernatant” value ([4]; Citrate buffer solution, pH 6)?
**A.** Its value is 0.0010 mg/mL.

**Q.** And the “content dissolved in supernatant” value ([4]; Citric acid, pH 2.6)?
**A.** The value was 0.786 mg/mL.

**Q.** Which results are given for `CC[C@@]12CC(C(=O)OC)=C3Nc4cc5c(cc4[C@@]34CCN(C[C@H]3O[C@H]31)[C@@H]24)[C@@H]1[C@H](O5)[C@@H](O)[C@@]2(CC)CC(C(=O)OC)=C3Nc4c(cc(O)c(OC)c4OC)[C@@]34CCN1[C@@H]24` [Conophylline, conophylline]?
**A.** concentration in solution [1]: 11280 ng/mL; concentration in supernatant after neutralization ([1]; pH 6.0, Pectin 10 μg/ml): 270 ng/mL; concentration in supernatant after neutralization ([1]; pH 6.0, Pectin 100 μg/ml): 550 ng/mL; concentration in supernatant after neutralization ([1]; pH 6.0, Pectin 1000 μg/ml): 2590 ng/mL; concentration in supernatant after neutralization [1, 5]: 240 ng/mL; concentration in supernatant after neutralization [1, 6]: 5150 ng/mL; concentration in supernatant after neutralization ([1]; pH 6.0, additive None): 190 ng/mL; blood concentration ([2]; male, Crj:CD(SD) IGS, rat, in vivo, po, 0.5 h): 398 ng/mL; blood concentration ([2]; male, Crj:CD(SD) IGS, rat, in vivo, po, 1 h): 472 ng/mL; blood concentration ([2]; male, Crj:CD(SD) IGS, rat, in vivo, po, 24 h): 108 ng/mL; concentration at 0.5 h [2, 7]: 332 ng/mL; concentration at 1 h [2, 7]: 270 ng/mL; concentration at 24 h [2, 7]: 90 ng/mL; time at which blood concentration reached its maximum ([3]; male, Crj:CD (SD) IGS, rat, in vivo, po): 1.5 h; content dissolved in supernatant ([4]; Citrate buffer solution, pH 3): 0.866 mg/mL; content dissolved in supernatant ([4]; Citrate buffer solution, pH 4): 0.093 mg/mL; content dissolved in supernatant ([4]; Citrate buffer solution, pH 5): 0.0018 mg/mL; content dissolved in supernatant ([4]; Citrate buffer solution, pH 6): 0.0009 mg/mL; content dissolved in supernatant ([4]; Citric acid, pH 2.6): 1.072 mg/mL
